Assays:
[1] = test system: ligand-binding protein (in this example, an antibody); experiment: Panning of phage-displayed peptide library against a ligand-binding protein (antibody), protein A-coated dishes; details: phage-expressed peptide, compared with the general phage population
[2] = Solubility of the secreted expressed peptide
From the text: The oligonucleotide encoding this peptide is cloned into a vector that allowed secretion of the expressed peptide. The peptide […]

| Sequence | ligand binding affinity [1] | soluble at a concentration of [2] [mg/mL] |
| --- | --- | --- |
| CDDQYYTDHEQGKCEVALYYTG [SEQ. ID. NO.: 63, peptide selected from phage library] | high affinity | – |
| TQSKCSTDHWLGYIEYFIMCTY [SEQ. ID. NO.: 62, twenty-two amino acid peptide selected from phage library] | highest affinity | ≥ 4 |
